Assays:
Test in all cases: Test C preemergence
blackgrass = format: in vivo, Alopecurus myosuroides; settings: Alopecurus myosuroides, pre-emergence, preemergence, scale 0 (no effect) to 100 (complete control), read-out: Blackgrass plant response rating
Procedure, shortened: (§1)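 Sown in loam/sand → sprayed pre-emergence; or grown to 1–4 leaves in peat mix → sprayed post-emergence. Same solvent/surfactant formulation both ways. Greenhouse 13–15 d. Score 0–100 visual.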

wheat, winter = format: in vivo, Triticum aestivum; settings: Triticum aestivum, pre-emergence
Procedure, shortened: as §1

galium = format: in vivo, Galium aparine; settings: Galium, pre-emergence
Excerpt: (§2) Seeds of plant species selected from blackgrass (Alopecurus myosuroides), Italian ryegrass (Lolium multiflorum), wheat, winter (winter wheat, Triticum aestivum), galium (catchweed bedstraw, Galium aparine), corn (Zea mays), large (Lg) crabgrass (Digitaria sanguinalis), giant foxtail (Setaria faberii), johnsongrass (Sorghum halepense), lambsquarters (Chenopodium album), morningglory (Ipomoea coccinea), yellow nutsedge (Cyperus esculentus), pigweed (Amaranthus retroflexus), ragweed (common ragweed, Ambrosia elatior), soybean (Glycine max), barnyardgrass (Echinochloa crus-galli), oilseed rape (Brassica napus), waterhemp (common waterhemp, Amaranthus rudis), kochia (Kochia scoparia), wild oat (Avena fatua), surinam grass (Brachiaria decumbens), foxtail, green (green foxtail, Setaria viridis), goosegrass (Eleusine indica), bromegrass, downy (downy bromegrass, Bromus tectorum), nightshade (eastern black nightshade, Solanum ptycanthum), cocklebur (common cocklebur, Xanthium strumarium), cupgrass, woolly (woolly cupgrass, Eriochloa villosa), bermudagrass (Cynodon dactylon), sunflower, (common oilseed sunflower, Helianthus annuus), Russian thistle (Salsola kali), and velvetleaf (Abutilon theophrasti) were planted into a blend of loam soil and sand and treated preemergence with test chemicals formulated in a non-phytotoxic solvent mixture which included a surfactant.
(§3) At the same time, plants selected from these crop and weed species and also barley, winter (winter barley, Hordeum vulgare), windgrass (Apera spica-venti), chickweed (common chickweed, Stellaria media), deadnettle (henbit deadnettle, Lamium amplexicaule), and canarygrass (littleseed canarygrass, Phalaris minor) were planted in pots containing Redi-Earth® planting medium (Scotts Company, 14111 Scottslawn Road, Marysville, Ohio 43041) comprising spaghnum peat moss, vermiculite, wetting agent and starter nutrients and treated with postemergence applications of test chemicals formulated in the same manner. Plants ranged in height from 2 to 18 cm (1- to 4-leaf stage) for postemergence treatments. Treated plants and controls were maintained in a greenhouse for 13 to 15 days, after which time all species were compared to controls and visually evaluated. Plant response ratings, summarized in Table C, are based on a scale of 0 to 100 where 0 is no effect and 100 is complete control. A dash (-) response means no test result.

giant foxtail = format: in vivo, Setaria faberii; settings: Setaria faberi, pre-emergence
Procedure, shortened: as §1

johnsongrass = format: in vivo, Sorghum halepense; settings: Sorghum halepense, pre-emergence
Procedure, shortened: as §1

lambsquarters = format: in vivo, Chenopodium album; settings: Chenopodium album, pre-emergence
Procedure, shortened: as §1

yellow nutsedge = format: in vivo, Cyperus esculentus; settings: Cyperus, pre-emergence
Excerpt: as §2, §3

pigweed = format: in vivo, Amaranthus retroflexus; settings: Amaranthus retroflexus, pre-emergence
Procedure, shortened: as §1

ragweed = format: in vivo, Ambrosia elatior; settings: Ambrosia artemisiifolia, pre-emergence
Excerpt: as §2, §3

soybean = format: in vivo, Glycine max; settings: Glycine max, pre-emergence
Procedure, shortened: as §1

barnyardgrass = format: in vivo, Echinochloa crus-galli; settings: Echinochloa crus-galli, pre-emergence
Excerpt: as §2, §3

oilseed rape = format: in vivo, Brassica napus; settings: Brassica napus, pre-emergence
Excerpt: as §2, §3

waterhemp = format: in vivo, Amaranthus rudis; settings: Amaranthus tuberculatus, pre-emergence
Excerpt: as §2, §3

velvetleaf = format: in vivo, Abutilon theophrasti; settings: Abutilon theophrasti, pre-emergence
Procedure, shortened: as §1

Q: N#Cc1cccc(Oc2ncc(Cl)cn2)c1-n1cc(Br)cn1 [Compound 52, 2-(4-bromo-1H-pyrazol-1-yl)-3-[(5-chloro-2-pyrimidinyl)oxy]benzonitrile] was tested. Which pest or weed control at 62 g/ha (blackgrass; 62 g ai/ha) did it give?
A: 85%

Q: And the pest or weed control at 125 g/ha (blackgrass; 125 g ai/ha)?
A: 90%

Q: What about the pest or weed control at 250 g/ha (blackgrass; 250 g ai/ha) of the same compound?
A: 90%

Q: And the plant injury at 62 g/ha (wheat, winter; 62 g ai/ha, preemergence, scale 0 (no effect) to 100 (complete control), read-out: Wheat plant response rating)?
A: 0%

Q: What about the plant injury at 125 g/ha (wheat, winter; 125 g ai/ha, preemergence, scale 0 (no effect) to 100 (complete control), read-out: Wheat plant response rating) of the same compound?
A: 30%

Q: What about the plant injury at 250 g/ha (wheat, winter; 250 g ai/ha, preemergence, scale 0 (no effect) to 100 (complete control), read-out: Wheat plant response rating) of the same compound?
A: 45%

Q: What about the plant injury at 31 g/ha (wheat, winter; Preemergence, 31 g ai/ha, scale 0 to 100, 0 no effect, 100 complete control, read-out: Plant response rating, Wheat) of the same compound?
A: 0%

Q: What about the pest or weed control at 62 g/ha (galium; 62 g ai/ha, preemergence, scale 0 (no effect) to 100 (complete control), read-out: Galium plant response rating) of the same compound?
A: 100%

Q: What about the pest or weed control at 125 g/ha (galium; 125 g ai/ha, preemergence, scale 0 (no effect) to 100 (complete control), read-out: Galium plant response rating) of the same compound?
A: 100%

Q: And the pest or weed control at 250 g/ha (galium; 250 g ai/ha, preemergence, scale 0 (no effect) to 100 (complete control), read-out: Galium plant response rating)?
A: 100%

Q: And the pest or weed control at 31 g/ha (galium; Preemergence, 31 g ai/ha, scale 0 to 100, 0 no effect, 100 complete control, read-out: Plant response rating, Galium)?
A: 100%

Q: What about the pest or weed control at 62 g/ha (giant foxtail; 62 g ai/ha, preemergence, scale 0 (no effect) to 100 (complete control), read-out: Foxtail, Giant plant response rating) of the same compound?
A: 100%

Q: And the pest or weed control at 125 g/ha (giant foxtail; 125 g ai/ha, preemergence, scale 0 (no effect) to 100 (complete control), read-out: Foxtail, Giant plant response rating)?
A: 100%

Q: What about the pest or weed control at 250 g/ha (giant foxtail; 250 g ai/ha, preemergence, scale 0 (no effect) to 100 (complete control), read-out: Foxtail, Giant plant response rating) of the same compound?
A: 100%

Q: And the pest or weed control at 31 g/ha (giant foxtail; Preemergence, 31 g ai/ha, scale 0 to 100, 0 no effect, 100 complete control, read-out: Plant response rating, Foxtail, Giant)?
A: 100%

Q: And the pest or weed control at 62 g/ha (johnsongrass; 62 g ai/ha, preemergence, scale 0 (no effect) to 100 (complete control), read-out: Johnsongrass plant response rating)?
A: 25%

Q: What about the pest or weed control at 125 g/ha (johnsongrass; 125 g ai/ha, preemergence, scale 0 (no effect) to 100 (complete control), read-out: Johnsongrass plant response rating) of the same compound?
A: 90%

Q: And the pest or weed control at 250 g/ha (johnsongrass; 250 g ai/ha, preemergence, scale 0 (no effect) to 100 (complete control), read-out: Johnsongrass plant response rating)?
A: 100%

Q: What about the pest or weed control at 31 g/ha (johnsongrass; Preemergence, 31 g ai/ha, scale 0 to 100, 0 no effect, 100 complete control, read-out: Plant response rating, Johnsongrass) of the same compound?
A: 15%

Q: What about the pest or weed control at 62 g/ha (lambsquarters; 62 g ai/ha, preemergence, scale 0 (no effect) to 100 (complete control), read-out: Lambsquarters plant response rating) of the same compound?
A: 100%

Q: And the pest or weed control at 125 g/ha (lambsquarters; 125 g ai/ha, preemergence, scale 0 (no effect) to 100 (complete control), read-out: Lambsquarters plant response rating)?
A: 100%

Q: And the pest or weed control at 250 g/ha (lambsquarters; 250 g ai/ha, preemergence, scale 0 (no effect) to 100 (complete control), read-out: Lambsquarters plant response rating)?
A: 100%

Q: What about the pest or weed control at 31 g/ha (lambsquarters; Preemergence, 31 g ai/ha, scale 0 to 100, 0 no effect, 100 complete control, read-out: Plant response rating, Lambsquarters) of the same compound?
A: 100%

Q: What about the pest or weed control at 62 g/ha (yellow nutsedge; 62 g ai/ha, preemergence, scale 0 (no effect) to 100 (complete control), read-out: Nutsedge, Yellow plant response rating) of the same compound?
A: 10%

Q: What about the pest or weed control at 125 g/ha (yellow nutsedge; 125 g ai/ha, preemergence, scale 0 (no effect) to 100 (complete control), read-out: Nutsedge, Yellow plant response rating) of the same compound?
A: 40%

Q: What about the pest or weed control at 250 g/ha (yellow nutsedge; 250 g ai/ha, preemergence, scale 0 (no effect) to 100 (complete control), read-out: Nutsedge, Yellow plant response rating) of the same compound?
A: 45%

Q: And the pest or weed control at 31 g/ha (yellow nutsedge; Preemergence, 31 g ai/ha, scale 0 to 100, 0 no effect, 100 complete control, read-out: Plant response rating, Nutsedge, Yellow)?
A: 0%

Q: And the pest or weed control at 62 g/ha (pigweed; 62 g ai/ha, preemergence, scale 0 (no effect) to 100 (complete control), read-out: Pigweed plant response rating)?
A: 100%

Q: And the pest or weed control at 125 g/ha (pigweed; 125 g ai/ha, preemergence, scale 0 (no effect) to 100 (complete control), read-out: Pigweed plant response rating)?
A: 100%

Q: And the pest or weed control at 250 g/ha (pigweed; 250 g ai/ha, preemergence, scale 0 (no effect) to 100 (complete control), read-out: Pigweed plant response rating)?
A: 100%

Q: What about the pest or weed control at 31 g/ha (pigweed; Preemergence, 31 g ai/ha, scale 0 to 100, 0 no effect, 100 complete control, read-out: Plant response rating, Pigweed) of the same compound?
A: 100%

Q: What about the pest or weed control at 62 g/ha (ragweed; 62 g ai/ha, preemergence, scale 0 (no effect) to 100 (complete control), read-out: Ragweed plant response rating) of the same compound?
A: 90%

Q: What about the pest or weed control at 125 g/ha (ragweed; 125 g ai/ha, preemergence, scale 0 (no effect) to 100 (complete control), read-out: Ragweed plant response rating) of the same compound?
A: 95%

Q: And the pest or weed control at 250 g/ha (ragweed; 250 g ai/ha, preemergence, scale 0 (no effect) to 100 (complete control), read-out: Ragweed plant response rating)?
A: 100%

Q: What about the pest or weed control at 31 g/ha (ragweed; Preemergence, 31 g ai/ha, scale 0 to 100, 0 no effect, 100 complete control, read-out: Plant response rating, Ragweed) of the same compound?
A: 90%

Q: And the plant injury at 62 g/ha (soybean; 62 g ai/ha, preemergence, scale 0 (no effect) to 100 (complete control), read-out: Soybean plant response rating)?
A: 85%

Q: And the plant injury at 125 g/ha (soybean; 125 g ai/ha, preemergence, scale 0 (no effect) to 100 (complete control), read-out: Soybean plant response rating)?
A: 90%

Q: What about the plant injury at 250 g/ha (soybean; 250 g ai/ha, preemergence, scale 0 (no effect) to 100 (complete control), read-out: Soybean plant response rating) of the same compound?
A: 90%

Q: What about the plant injury at 31 g/ha (soybean; Preemergence, 31 g ai/ha, scale 0 to 100, 0 no effect, 100 complete control, read-out: Plant response rating, Soybean) of the same compound?
A: 5%

Q: What about the pest or weed control at 62 g/ha (barnyardgrass; 62 g ai/ha, preemergence, scale 0 (no effect) to 100 (complete control), read-out: Barnyardgrass plant response rating) of the same compound?
A: 95%

Q: And the pest or weed control at 125 g/ha (barnyardgrass; 125 g ai/ha, preemergence, scale 0 (no effect) to 100 (complete control), read-out: Barnyardgrass plant response rating)?
A: 100%

Q: And the pest or weed control at 250 g/ha (barnyardgrass; 250 g ai/ha, preemergence, scale 0 (no effect) to 100 (complete control), read-out: Barnyardgrass plant response rating)?
A: 100%

Q: What about the pest or weed control at 31 g/ha (barnyardgrass; Preemergence, 31 g ai/ha, scale 0 to 100, 0 no effect, 100 complete control, read-out: Plant response rating, Barnyardgrass) of the same compound?
A: 50%

Q: And the plant injury at 62 g/ha (oilseed rape; 62 g ai/ha, preemergence, scale 0 (no effect) to 100 (complete control), read-out: Oilseed Rape plant response rating)?
A: 100%

Q: And the plant injury at 125 g/ha (oilseed rape; 125 g ai/ha, preemergence, scale 0 (no effect) to 100 (complete control), read-out: Oilseed Rape plant response rating)?
A: 100%

Q: And the plant injury at 250 g/ha (oilseed rape; 250 g ai/ha, preemergence, scale 0 (no effect) to 100 (complete control), read-out: Oilseed Rape plant response rating)?
A: 100%

Q: What about the plant injury at 31 g/ha (oilseed rape; Preemergence, 31 g ai/ha, scale 0 to 100, 0 no effect, 100 complete control, read-out: Plant response rating, Oilseed Rape) of the same compound?
A: 100%

Q: And the pest or weed control at 62 g/ha (waterhemp; 62 g ai/ha, preemergence, scale 0 (no effect) to 100 (complete control), read-out: Waterhemp plant response rating)?
A: 100%

Q: And the pest or weed control at 125 g/ha (waterhemp; 125 g ai/ha, preemergence, scale 0 (no effect) to 100 (complete control), read-out: Waterhemp plant response rating)?
A: 100%

Q: What about the pest or weed control at 250 g/ha (waterhemp; 250 g ai/ha, preemergence, scale 0 (no effect) to 100 (complete control), read-out: Waterhemp plant response rating) of the same compound?
A: 100%

Q: What about the pest or weed control at 31 g/ha (waterhemp; Preemergence, 31 g ai/ha, scale 0 to 100, 0 no effect, 100 complete control, read-out: Plant response rating, Waterhemp) of the same compound?
A: 100%

Q: What about the pest or weed control at 62 g/ha (velvetleaf; 62 g ai/ha, preemergence, scale 0 (no effect) to 100 (complete control), read-out: Velvetleaf plant response rating) of the same compound?
A: 100%

Q: And the pest or weed control at 125 g/ha (velvetleaf; 125 g ai/ha, preemergence, scale 0 (no effect) to 100 (complete control), read-out: Velvetleaf plant response rating)?
A: 100%

Q: What about the pest or weed control at 250 g/ha (velvetleaf; 250 g ai/ha, preemergence, scale 0 (no effect) to 100 (complete control), read-out: Velvetleaf plant response rating) of the same compound?
A: 100%

Q: What about the pest or weed control at 31 g/ha (velvetleaf; Preemergence, 31 g ai/ha, scale 0 to 100, 0 no effect, 100 complete control, read-out: Plant response rating, Velvetleaf) of the same compound?
A: 75%
